From patent publication US20120088746A1, “AMIDE DERIVATIVES AS ION-CHANNEL LIGANDS AND PHARMACEUTICAL COMPOSITIONS AND METHODS OF USING THE SAME” (PFIZER INC., priority 2006, published 2012)

What follows are compounds tested against human VR1 (Homo sapiens, UniProt Q8NER1) (assay: Acid stimulation assay (acid-induced intracellular calcium change, FDSS 6000)). Conditions: final assay buffer pH5.8, 15 min pre-incubation, read-out: IC50 (nM) Low pH.
human VR1, sequence (Q8NER1 whole entry): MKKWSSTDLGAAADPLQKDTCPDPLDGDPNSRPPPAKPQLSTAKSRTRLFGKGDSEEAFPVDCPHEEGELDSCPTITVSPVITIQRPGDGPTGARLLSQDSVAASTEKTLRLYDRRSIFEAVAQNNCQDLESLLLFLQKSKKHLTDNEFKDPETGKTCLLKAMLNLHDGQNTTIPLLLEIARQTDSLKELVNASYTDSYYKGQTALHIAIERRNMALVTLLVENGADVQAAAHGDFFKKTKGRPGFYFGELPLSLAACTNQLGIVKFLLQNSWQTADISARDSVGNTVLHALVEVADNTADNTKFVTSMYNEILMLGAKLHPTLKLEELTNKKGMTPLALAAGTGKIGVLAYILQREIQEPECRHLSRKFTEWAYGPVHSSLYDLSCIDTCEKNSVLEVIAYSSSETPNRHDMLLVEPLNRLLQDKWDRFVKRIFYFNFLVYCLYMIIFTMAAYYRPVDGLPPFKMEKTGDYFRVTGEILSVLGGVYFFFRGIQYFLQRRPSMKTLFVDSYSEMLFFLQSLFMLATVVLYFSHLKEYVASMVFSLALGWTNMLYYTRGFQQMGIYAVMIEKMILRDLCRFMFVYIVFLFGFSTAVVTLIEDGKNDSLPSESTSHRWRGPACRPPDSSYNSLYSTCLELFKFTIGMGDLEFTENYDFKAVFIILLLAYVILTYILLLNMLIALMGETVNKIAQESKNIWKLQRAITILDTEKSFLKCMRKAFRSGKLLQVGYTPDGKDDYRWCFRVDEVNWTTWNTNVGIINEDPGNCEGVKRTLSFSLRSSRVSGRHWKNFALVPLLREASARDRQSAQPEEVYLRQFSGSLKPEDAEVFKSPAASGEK
Type: cell-based
Description: VR1 antagonistic activity can be determined by the Ca^2+ imaging assay using human VR1 highly expressing cells. The cells that highly express human VR1 receptors are obtainable from several different conventional methods. The one standard method is cloning from human Dorsal Root Ganglion (DRG) or kidney according to the methods such as described in the journal article; Nature, 389, pp 816-824, 1997. Alternatively VR1 receptors highly expressing human keratinocytes are also known and published in the journal article (Biochemical and Biophysical Research Communications, 291, pp 124-129, 2002). […] Furthermore, the method to up regulate human VR1 gene, which is usually a silent gene or don't produce detectable level of VR1 receptors, is also available to obtain propriety cells. Such genetic modification method was described in detail; Nat. Biotechnol., 19, pp 440-445, 2001.
The cells that express human VR1 receptors were maintained in culture flask at 37° C. in an environment containing 5% CO2 until use in the assay. The intracellular Ca^2+ imaging assay to determine VR1 antagonistic activities were done by following procedures.
The culture medium was removed from the flask and fura-2/AM fluorescent calcium indicator was added to the flask at a concentration of 5 μM in the medium. The flask was placed in CO2 incubator and incubated for 1 hour. Then the cells expressing the human VR1 receptors were detached from the flask follow by washing with phosphate buffer saline, PBS(−) and re-suspended in assay buffer. The 80 tit of aliquot of cell suspension (3.75×10^5 cells/ml) was added to the assay plate and the cells were spun down by centrifuge (950 rpm, 20° C., 3 minutes).
(§1) The Acid-induced changes in the intracellular calcium concentration were monitored using FDSS 6000 (Hamamatsu Photonics, Japan), a fluorometric imaging system. The cell suspension in resting buffer (HBSS supplemented with 10 mM HEPES, pH 7.4) were pre-incubated with varying concentrations of the test compounds or resting buffer (buffer control) for 15 minutes at room temperature under the dark condition. The cells were automatically added the stimulating solution (HBSS supplemented with MES, final assay buffer pH5.8) by the FDSS 6000.
as §1, with “7.4) was” for “7.4) were”, “under” for “under the”, “dark conditions.” for “dark condition.”, “added to” for “added”
`Cc1cc([C@@H](C)NC(=O)c2cnc3cc(C(C)(C)C)ccc3c2C)ccc1NS(C)(=O)=O` [Example 42, 7-TERT-BUTYL-4-METHYL-N-((1R)-1-{3-METHYL-4-[(METHYLSULFONYL)AMINO]PHENYL}-ETHYL)QUINOLINE-3-CARBOXAMIDE] showed an IC50 of 532 nM. `Cc1cc([C@@H](C)NC(=O)c2cnc3cc(C(F)(F)F)ccc3c2)c(F)cc1NS(C)(=O)=O` [Example 43, N-((1R)-1-{2-FLUORO-5-METHYL-4-[(METHYLSULFONYL)AMINO]PHENYL}ETHYL)-7-(TRIFLUOROMETHYL)QUINOLINE-3-CARBOXAMIDE] was tested, and the IC50 was 30 nM. Compound `CCOc1ccc2cc(C(=O)N[C@H](C)c3ccc(NS(C)(=O)=O)c(C)c3)ccc2n1` [Example 44, 2-ETHOXY-N-((1R)-1-{3-METHYL-4-[(METHYLSULFONYL)AMINO]PHENYL}ETHYL)-QUINOLINE-6-CARBOXAMIDE] has an IC50 of 15 nM. For `Cc1cc([C@@H](C)NC(=O)c2ccc3cc(C(F)(F)F)ccc3c2)ccc1NS(C)(=O)=O` [Example 51, N-((1R)-1-{3-METHYL-4-[(METHYLSULFONYL)AMINO]PHENYL}ETHYL)-6-(TRIFLUORO-METHYL)-2-NAPHTHAMIDE], the IC50 was 1 nM. Work on `Cc1cc([C@@H](C)NC(=O)c2ccc3cc(C4CC4)ccc3c2)c(Cl)cc1NS(C)(=O)=O` [Example 52, (R)—N-(1-(2-CHLORO-5-METHYL-4-(METHYLSULFONAMIDO)PHENYL)ETHYL)-6-CYCLOPROPYL-2-NAPHTHAMIDE] yielded an IC50 of 22 nM. `Cc1cc([C@@H](C)NC(=O)c2cnc3cc(C(F)(F)F)ccc3c2)c(Cl)cc1NS(C)(=O)=O` [Example 53, (R)—N-(1-(2-CHLORO-5-METHYL-4-(METHYLSULFONAMIDO)PHENYL)ETHYL)-7-(TRIFLUOROMETHYL)QUINOLINE-3-CARBOXAMIDE] was tested, and the IC50 was 36 nM. `Cc1cc([C@@H](C)NC(=O)c2ccc3cc(C(F)(F)F)ccc3c2)ncc1NS(C)(=O)=O` [Example 54, N-((1R)-1-{4-METHYL-5-[(METHYLSULFONYL)AMINO]PYRIDIN-2-YL}ETHYL)-6-(TRIFLUOROMETHYL)-2-NAPHTHAMIDE] showed an IC50 of 12 nM. With `Cc1cc([C@@H](C)NC(=O)c2ccc3cc(C(F)(F)F)ccc3n2)c(Cl)cc1NS(C)(=O)=O` [Example 57, (R)—N-(1-(2-CHLORO-5-METHYL-4-(METHYLSULFONAMIDO)PHENYL)ETHYL)-6-(TRIFLUOROMETHYL)QUINOLINE-2-CARBOXAMIDE] the IC50 was 58 nM. `Cc1cc([C@@H](C)NC(=O)c2ccc3cc(C4(C)CC4)ccc3c2)ncc1NS(C)(=O)=O` [Example 58, (R)—N-(1-(4-METHYL-5-(METHYLSULFONAMIDO)PYRIDIN-2-YL)ETHYL)-6-(1-METHYL-CYCLOPROPYL)-2-NAPHTHAMIDE] was tested, and the IC50 was 7 nM. With `Cc1cc([C@@H](C)NC(=O)c2ccc3nc(N4CCCC4)ccc3c2)c(F)cc1NS(C)(=O)=O` [Example 68, (R)—N-(1-(2-FLUORO-5-METHYL-4-(METHYLSULFONAMIDO)PHENYL)ETHYL)-2-(PYRROLIDIN-1-YL)QUINOLINE-6-CARBOXAMIDE] the IC50 was 293 nM. `Cc1cc([C@@H](C)NC(=O)c2ccc3nc(C(F)(F)F)cc(N4CCCCC4)c3c2)c(F)cc1NS(C)(=O)=O` [Example 70, 4-PIPERIDIN-1-YL-2-TRIFLUOROMETHYL-QUINOLINE-6-CARBOXYLIC ACID [(R)-1-(2-FLUORO-4-METHANESULFONYLAMINO-5-METHYL-PHENYL)-ETHYL]-AMIDE] was tested, and the IC50 was 26 nM. Work on `Cc1cc([C@@H](C)NC(=O)c2ccc3nc(C(F)(F)F)cc(N4CCC(F)(F)CC4)c3c2)c(F)cc1NS(C)(=O)=O` [Example 73, 4-(4,4-DIFLUORO-PIPERIDIN-1-YL)-2-TRIFLUOROMETHYL-QUINOLINE-6-CARBOXYLIC ACID [(R)-1-(2-FLUORO-4-METHANESULFONYLAMINO-5-METHYL-PHENYL)-ETHYL]-AMIDE] yielded an IC50 of 29 nM. For `C[C@@H](NC(=O)c1ccc2cc(C(F)(F)F)ccc2c1)c1ccc(NS(C)(=O)=O)c(CO)c1` [Example 74, N-((1R)-1-{3-(HYDROXYMETHYL)-4-[(METHYLSULFONYL)AMINO]PHENYL}ETHYL)-6-(TRIFLUOROMETHYL)-2-NAPHTHAMIDE], the IC50 was 13 nM. Compound `Cc1cc([C@@H](C)NC(=O)c2ccc3nc(C(F)(F)F)cc(N4CCC(C(F)(F)F)CC4)c3c2)c(F)cc1NS(C)(=O)=O` [Example 76, 2-TRIFLUOROMETHYL-4-(4-TRIFLUOROMETHYL-PIPERIDIN-1-YL)-QUINOLINE-6-CARBOXYLIC ACID [(R)-1-(2-FLUORO-4-METHANESULFONYLAMINO-5-METHYL-PHENYL)-ETHYL]-AMIDE] has an IC50 of 48 nM. `Cc1cc([C@@H](C)NC(=O)c2ccc3ccc(C(F)(F)F)cc3c2)ccc1NS(C)(=O)=O` [Example 77] was tested, and the IC50 was 4 nM. `Cc1cc([C@@H](C)NC(=O)c2ccc3nc(N4CCOCC4)ccc3c2)c(F)cc1NS(C)(=O)=O` [Example 81, ((R)—N-(1-(2-FLUORO-5-METHYL-4-(METHYLSULFONAMIDO)PHENYL)ETHYL)-2-MORPHOLINOQUINOLINE-6-CARBOXAMIDE] showed an IC50 of 748 nM. Compound `Cc1cc([C@@H](C)NC(=O)c2ccc3nc(C(F)(F)F)nc(N4CCCCC4)c3c2)c(F)cc1NS(C)(=O)=O` [Example 84, 4-PIPERIDIN-1-YL-2-TRIFLUOROMETHYL-QUINAZOLINE-6-CARBOXYLIC ACID [(R)-1-(2-FLUORO-4-METHANESULFONYLAMINO-5-METHYL-PHENYL)-ETHYL]-AMIDE] has an IC50 of 51 nM. `Cc1cc([C@@H](C)NC(=O)c2ccc3nc(C(F)(F)F)nc(N4CCN(c5cccc(Cl)c5)CC4)c3c2)c(F)cc1NS(C)(=O)=O` [Example 85, 4-[4-(3-CHLORO-PHENYL)-PIPERAZIN-1-YL]-2-TRIFLUOROMETHYL-QUINAZOLINE-6-CARBOXYLIC ACID [(R)-1-(2-FLUORO-4-METHANESULFONYLAMINO-5-METHYL-PHENYL)-ETHYL]-AMIDE] gave an IC50 of 60 nM. Work on `Cc1cc([C@@H](C)NC(=O)c2ccc3nc(C(F)(F)F)nc(N4CC(C)OC(C)C4)c3c2)c(F)cc1NS(C)(=O)=O` (stereo partly drawn) [Example 86, 4-(2,6-DIMETHYL-MORPHOLIN-4-YL)-2-TRIFLUOROMETHYL-QUINAZOLINE-6-CARBOXYLIC ACID [(R)-1-(2-FLUORO-4-METHANESULFONYLAMINO-5-METHYL-PHENYL)-ETHYL]-AMIDE] yielded an IC50 of 7 nM. `Cc1cc([C@@H](C)NC(=O)c2cnc3cc(C4CC4)cnc3c2)c(F)cc1NS(C)(=O)=O` [Example 87, 7-CYCLOPROPYL-[1.5]NAPHTHYRIDINE-3-CARBOXYLIC ACID [(R)-1-(2-FLUORO-4-METHANESULFONYLAMINO-5-METHYL-PHENYL)-ETHYL]-AMIDE] showed an IC50 of 111 nM. `COc1ccccc1N1CCN(c2nc(C(F)(F)F)nc3ccc(C(=O)N[C@H](C)c4cc(C)c(NS(C)(=O)=O)cc4F)cc23)CC1` [Example 88, 4-[4-(2-METHOXY-PHENYL)-PIPERAZIN-1-YL]-2-TRIFLUOROMETHYL-QUINAZOLINE-6-CARBOXYLIC ACID [(R)-1-(2-FLUORO-4-METHANESULFONYLAMINO-5-METHYL-PHENYL)-ETHYL]-AMIDE] gave an IC50 of 50 nM. `Cc1cc([C@@H](C)NC(=O)c2ccc3nc(C(F)(F)F)cc(N4CC[C@@H](O)C4)c3c2)c(F)cc1NS(C)(=O)=O` [Example 90, 4-((R)-3-HYDROXYPYRROLIDIN-1-YL)-2-TRIFLUOROMETHYLQUINOLINE-6-CARBOXYLIC ACID [(R)-1-(2-FLUORO-4-METHANESULFONYLAMINO-5-METHYLPHENYL)ETHYL]AMIDE] gave an IC50 of 112 nM. `Cc1cc([C@@H](C)NC(=O)c2ccc3nc(C(F)(F)F)cc(N4CC[C@H](O)C4)c3c2)c(F)cc1NS(C)(=O)=O` [Example 91, 4-((S)-3-HYDROXY-PYRROLIDIN-1-YL)-2-TRIFLUOROMETHYLQUINOLINE-6-CARBOXYLIC ACID [(R)-1-(2-FLUORO-4-METHANESULFONYLAMINO-5-METHYLPHENYL)ETHYL]AMIDE] showed an IC50 of 366 nM. In the case of `Cc1cc([C@@H](C)NC(=O)c2ccc3nc(C(F)(F)F)cc(N4CC(F)(F)C4)c3c2)c(F)cc1NS(C)(=O)=O` [Example 92, 4-(3,3-DIFLUOROAZETIDIN-1-YL)-2-TRIFLUOROMETHYLQUINOLINE-6-CARBOXYLIC ACID [(R)-1-(2-FLUORO-4-METHANESULFONYLAMINO-5-METHYLPHENYL)-ETHYL]AMIDE], the IC50 is reported as 24 nM. For `Cc1cc([C@@H](C)NC(=O)c2ccc3nc(C(F)(F)F)cc(N4CCC[C@@H]4CO)c3c2)c(F)cc1NS(C)(=O)=O` [Example 93, 4-((R)-2-HYDROXYMETHYLPYRROLIDIN-1-YL)-2-TRIFLUOROMETHYLQUINOLINE-6-CARBOXYLIC ACID [(R)-1-(2-FLUORO-4-METHANESULFONYLAMINO-5-METHYLPHENYL)ETHYL]AMIDE], the IC50 was 370 nM.
